The source of these data is ChEMBL document CHEMBL3507680, “University of Dundee, Gates Library screen for HepG2 cell viability”.

The nature of the data set: Human HepG2 cell viability assay in 384 well format. It is filed as toxicity, cell-based. As to conditions: HepG2 cells, read-out: Inhibition. Also on record: dose 125 nL, time 70.5 hour; cytotoxicity at 70.5 h: concentration not given beside the values.
As to `CC(C)CC(=O)N1CCC2(CC1)[C@@H]1CN(C(=O)N(C)C)C[C@@H]1C(=O)N2C`, the cytotoxicity at 70.5 h was -3.34%.

As to `CC(=O)N1CCC2(CC1)[C@@H]1CN(Cc3cccnc3)C[C@@H]1C(=O)N2C`, the cytotoxicity at 70.5 h came out at 18.5%. The value for `CC(=O)N1CCC2(CCN(CC(C)C)C2)C1` (stereo unspecified) was -5.21%; that for `O=C(N1CCCC1)N1C[C@@H]2CCNC[C@@H]21` was -12%. The same measure for `CCN1C(=O)C(c2ccccc2)CC12CCN(S(C)(=O)=O)CC2` (stereo unspecified): -9.88%. The value for `CN1CC[C@@H]2[C@@H]1CCN2Cc1ccc2c(c1)OCO2` was -9.96%; that for `Cc1cccc(C(=O)N2C[C@@H]3[C@H](CC(=O)N4CCCC4)[C@@H]3C2)n1` was -6.1%; that for `CC(=O)N1CCCC2(CCN(C(=O)c3nn(C)c4ccccc34)CC2)C1` was 29.2%.

Take `Cc1ccc(CN2CC3(CCN(S(=O)(=O)c4ccccc4)C3)C2)o1`: the cytotoxicity at 70.5 h amounted to 24.3%. The same measure for `Cc1oncc1C(=O)N1CC2CC1(C(=O)N(C)C)C2`: -6.15%; for `COCCC(=O)N1CCCC2(CCN(c3ccccc3)C2=O)C1` (stereo unspecified): -11%. The value for `CS(=O)(=O)N[C@@H]1COC[C@@H]2CN(Cc3ccoc3)C[C@@H]21` was -11.6%; that for `CS(=O)(=O)N1CCc2sc(C(=O)NCc3ccccc3)cc21` was -9.68%.

Take `CCOCC1CN(C(=O)c2cccnc2)Cc2cnn(C)c21` (stereo unspecified): the cytotoxicity at 70.5 h was -9.4%. For `CC(=O)N1CCC2(C1)c1ccccc1S(=O)(=O)N2CCC(C)C` (stereo unspecified), the cytotoxicity at 70.5 h is -11.2%. As for `CC(C)Nc1nc(N2CCCC2)nc2c1CN(S(C)(=O)=O)CC2`, the cytotoxicity at 70.5 h is -1.08%. The same measure for `CN(C)CCNC(=O)c1cc2c(s1)CCN2S(C)(=O)=O`: -9.71%; for `CCOCC1CN(C(=O)C2CCOCC2)Cc2cnn(C)c21` (stereo unspecified): 17.4%; for `COC(=O)CCC(=O)N1CCC2(CN(Cc3ccccc3)C2)C1`: 21%.

For `O=C([C@@H]1C[C@@H]2CCN(C3CCOCC3)C[C@H]2O1)N1CCCC1`, the cytotoxicity at 70.5 h is -4.52%. `Cc1ccc(NCc2cnc3n2CCN(c2ncccn2)CC3)nn1`: the cytotoxicity at 70.5 h was -2.11%.

Consider `CN(C)C(=O)CN1C[C@@H]2OCCN(c3ncc(F)cn3)[C@@H]2C1`, for which the cytotoxicity at 70.5 h is 0.597%. The same measure for `O=C([C@@H]1C[C@@H]2CCN(C3CCOCC3)C[C@@H]2O1)N1CCOCC1`: -7.48%; for `Cc1noc([C@@]23CCO[C@@H]2CCN(C(=O)CCC(C)C)C3)n1`: 1.83%.

For `Cc1noc([C@@]23CCO[C@@H]2CCN(C(=O)c2c(C)noc2C)C3)n1`, the cytotoxicity at 70.5 h was -1.33%. Take `O=C(c1ccco1)N1CCN2C[C@H](Oc3cncnc3)C[C@H]2C1`: the cytotoxicity at 70.5 h was determined as 12.4%. Take `COc1cc(N2CCn3cc(CNc4ccccn4)nc3C2)ncn1`: the cytotoxicity at 70.5 h came out at 2.02%.

`CCc1cnc(N2C[C@H]3C[C@H](C(=O)NCC(C)C)[C@@H](C2)O3)nc1`: the cytotoxicity at 70.5 h was 2.56%. The value for `CCc1cnc(N2C[C@H]3C[C@H](C(=O)NC4CCC4)[C@@H](C2)O3)nc1` was -1.31%; that for `CCc1cnc(N2C[C@H]3C[C@H](C(=O)NC)[C@@H](C2)O3)nc1` was -1.27%; that for `Cn1cc(CN2CCc3ncn(C)c3C2COCc2cccnc2)cn1` (stereo unspecified) was -0.736%. The value for `CCC1=N[C@@]2(CC[C@@H]3CN(C(=O)NCC(C)C)C[C@@H]32)C(=O)N1CC1CC1` was -2.4%; that for `Cc1noc([C@@]23CCO[C@@H]2CCN(C(=O)CN(C)C)C3)n1` was -0.0937%. Take `O=C(c1ccsc1)N1CCc2c(CNc3nccs3)n[nH]c2C1`: the cytotoxicity at 70.5 h is -2.81%. In the case of `Cc1nnc([C@H]2CC[C@@H]3[C@@H](CCN3Cc3c(C)noc3C)O2)o1`, the cytotoxicity at 70.5 h is -5.84%.

Consider `CN(C)C(=O)N1Cc2ccccc2C2(CCNCC2)C1`, for which the cytotoxicity at 70.5 h was 28.5%.

On to `CC(C)N1CCC2(CCNCC2)C1=O`, for which the cytotoxicity at 70.5 h is -13%.

On to `c1ccc(NCc2cn3c(n2)CNCC3)nc1`, for which the cytotoxicity at 70.5 h was 2.18%. The same measure for `CN1CC2(CNCCN(C(=O)Nc3ccccc3)C2)CC1=O` (stereo unspecified): -7.57%.

For `O=C(C1CCCC1)N1CCCC2(CCN(c3cnccn3)CC2)C1`, the cytotoxicity at 70.5 h was -8.23%.

On to `CC(C)C(=O)N1CC2(CCN(CC(C)(C)C)CC2)C1`, for which the cytotoxicity at 70.5 h was determined as 47.3%. The same measure for `CN(C)CCN1C[C@@H]2CN(S(=O)(=O)c3cccs3)C[C@@H]2C1=O`: -10.9%. Consider `CCN1C[C@@H]2CN(Cc3cccs3)C[C@@H]2C1=O`, for which the cytotoxicity at 70.5 h is -10.6%. The same measure for `CCN1CC[C@@]2(C(=O)N(C)C)CCN(S(=O)(=O)c3ccccc3)CC[C@@H]12`: -9.93%; for `CCS(=O)(=O)N1CCC2(CCN(Cc3cccc(OC)c3)CC2)CC1`: -2.06%; for `CN1CCOC2(CCCN(C(=O)C3CCCCC3)C2)C1` (stereo unspecified): 34.5%.

With `N#Cc1ccc(C(=O)N2CC[C@H]3[C@H]2CCN3CC2CCOCC2)cc1`, the cytotoxicity at 70.5 h was 12.2%. The value for `N#Cc1cccc(C(=O)N2CC[C@H]3[C@H]2CCN3CC2CC2)c1` was 19.2%; that for `Cc1nn(C)c(C)c1S(=O)(=O)N1C[C@@H]2C[C@@H](C)O[C@@H]2C1` was -9.76%; that for `O=C(c1cccc(F)c1)N1C[C@H]2CN(Cc3ccccn3)C[C@H]2C1` was -16%. Take `COCCN1C[C@@H]2CN(Cc3ccc(F)cc3)C[C@@H]2C1=O`: the cytotoxicity at 70.5 h is -9.05%. The same measure for `COCCN1CC[C@H]2CN(Cc3ccc(C)s3)C[C@@H]2C1=O`: -9.57%. The same measure for `COc1ccc(CC(=O)N2C[C@H]3CN(Cc4ccccn4)C[C@H]3C2)cc1`: -3.26%; for `Cc1nn(C)c(C)c1S(=O)(=O)N1CC[C@H]2O[C@@H](C)C[C@H]2C1`: -8.7%; for `CCc1ccc(CN2C[C@@H](C)C3(CCN(CC(=O)N(C)C)C3=O)C2)o1` (stereo partly specified): -6.86%. As to `O=C(c1c[nH]cn1)N1CCOCC2(C1)CN(c1ccccc1)C(=O)CO2` (stereo unspecified), the cytotoxicity at 70.5 h is -13.7%. The same measure for `O=C(N1CCCC1)N1CCOCC2(CCN(Cc3cccs3)C2)C1` (stereo unspecified): 29.2%. With `Cc1cccc(N2CCc3ncc(CNS(C)(=O)=O)n3CC2)n1`, the cytotoxicity at 70.5 h is -11.6%. With `CN(C)C(=O)[C@H]1C[C@@H]2CCN(C3CCOCC3)C[C@@H]2O1`, the cytotoxicity at 70.5 h was -2.42%. The value for `Cc1ccccc1C(=O)N1CCO[C@H]2[C@H](OCCN(C)C)CC[C@@H]21` was -2.16%. The same measure for `O=C([C@@H]1C[C@@H]2CCN(C3CCOCC3)C[C@@H]2O1)N1CCCC1`: -5.63%. For `Cc1cc(C(=O)N2CCO[C@H]3[C@H](OCCN(C)C)CC[C@@H]32)c(C)[nH]1`, the cytotoxicity at 70.5 h was -9.02%.

For the compound `CN(C)C(=O)COCC1CN(S(C)(=O)=O)Cc2ncn(C)c21` (stereo unspecified), the cytotoxicity at 70.5 h is -6.55%. The value for `Fc1ccc(CN2CCCn3cnc(COCC4CC4)c3C2)cc1` was 2.87%; that for `COc1ccc(CN2CCCn3cnc(COCC4CC4)c3C2)cc1` was 1.46%. The same measure for `COCCN1C[C@@H](C)[C@@]2(COCCN(C(=O)c3cccs3)C2)C1`: 1.58%; for `CC(C)OCc1ncn2c1CN(Cc1cnn(C)c1)CCC2`: 0.691%; for `COCc1cnc2n1CCN(C1CCC1)C2C` (stereo unspecified): -2.01%.

As to `CO[C@@H]1CCN(S(=O)(=O)c2cn(C)cn2)[C@H]1Cc1ccncc1`, the cytotoxicity at 70.5 h amounted to 4.82%. The same measure for `COc1ncnc2c1CCN(Cc1cccs1)CC2`: -2.23%; for `CN(C)C(=O)[C@@H]1CCO[C@@H]2CCN(c3ncccn3)C[C@@H]21`: -2.08%. On to `O=C(C1CC1)N1CCC[C@]2(C[C@@H](OCc3ccncc3)CO2)C1`, for which the cytotoxicity at 70.5 h was found to be 0.889%. The same measure for `O=C(c1ccccc1)N1CCC[C@]2(C[C@@H](OCc3ccncc3)CO2)C1`: -4.9%.

For the compound `CO[C@@H]1CCN(c2nnc(C)s2)C[C@@H]1Cc1ccccc1`, the cytotoxicity at 70.5 h was -2.42%. Consider `c1cc2c(cc1CN1CC[C@H]3[C@H]1CCN3CC1CC1)OCO2`, for which the cytotoxicity at 70.5 h is -1.51%. As for `CC(C)N1CCc2[nH]nc(C(=O)N3CCOCC3)c2C1`, the cytotoxicity at 70.5 h was -12.9%.

Turning to `O=C(NCC1CC1)c1n[nH]c2c1CNCC2`, the cytotoxicity at 70.5 h is -10.7%. On to `Cc1ccc(CN2C[C@@H]3CCN(Cc4cccnc4)C(=O)[C@H]3C2)s1`, for which the cytotoxicity at 70.5 h was 14.5%. The same measure for `CC1c2ncc(CNC(=O)C3CC3)n2CCN1Cc1cccnc1` (stereo unspecified): -5.38%. The same measure for `Cc1ccc(CN2CCOCC3(CCN(Cc4cccs4)C3)C2)o1` (stereo unspecified): 0.0959%; for `COc1ccc(CN2CCc3nnc(COCCN(C)C)n3CC2)cc1`: -17.3%.

Consider `Fc1cnc(N2C[C@@H]3COC[C@]3(COc3ccccn3)C2)nc1`, for which the cytotoxicity at 70.5 h turned out to be 19.5%. With `CCc1ccc(CN2CCc3ncnc(-c4cccnc4)c3CC2)o1`, the cytotoxicity at 70.5 h is -6.08%. The value for `c1cncc(COCc2nnn3c2CN(Cc2ccsc2)CC3)c1` was -2.9%; that for `c1cc(CN2CC[C@H]3CO[C@H](CN4CCOCC4)[C@H]3C2)cs1` was -11.2%; that for `Cc1ccc(C(=O)N2CCN3C[C@H](Oc4cccc(F)c4)C[C@H]3C2)cn1` was -2.95%. The same measure for `COCC1CN(Cc2cc(C)on2)Cc2cnn(C)c21` (stereo unspecified): -3.91%; for `CC(C)N1CCc2[nH]nc(C(=O)N3CCN(C)CC3)c2C1`: -1.5%.

Consider `Cc1cccnc1N1CC2(CCN(Cc3cccnc3)C2)C1`, for which the cytotoxicity at 70.5 h came out at 16.3%. Regarding `Cc1ccc(CN2CCn3c(CN4CCN(C)CC4)cnc3C2C)s1` (stereo unspecified), the cytotoxicity at 70.5 h was determined as 21.3%. The value for `CC1c2ncc(CN3CCN(C)CC3)n2CCN1Cc1ccsc1` (stereo unspecified) was -0.917%.
